Results as given in patent US20230265151A1, “GIP/GLP1 CO-AGONIST COMPOUNDS” (priority 2020, published 2023).
Like-named read-outs stand apart in the source and are kept apart here. *1 amine or outer side, *2 acyl side, *3 side chain or, on linkers, in order; H or OH if unused. Where a SMILES comes first, the peptide text is derived from it. Side-chain parts run from the residue outwards. [ ]: non-standard residue; d: D form. The star is where a group is joined. αMePhe(2-F) = C[C@](N)(Cc1ccccc1F)C(=O)O; γGlu = O=C(O)[C@H](CCC(=O)[*:2])N[*:1]; αMeY = C[C@](N)(Cc1ccc(O)cc1)C(=O)O; αMeF = C[C@](N)(Cc1ccccc1)C(=O)O; 4Pal = N[C@@H](Cc1ccncc1)C(=O)O; αMeL = CC(C)C[C@](C)(N)C(=O)O; Lauroyl = CCCCCCCCCCCC(=O)*; Orn = NCCC[C@H](N)C(=O)O; AEEA = NCCOCCOCC(=O)O; Aib = CC(C)(N)C(=O)O

Columns and labels:
Format in all cases: cell-based
[1] = molecular target: hGLP-1R (Homo sapiens, UniProt P43220); assay: Functional cAMP formation (HTRF) in HEK-293 clonal cells expressing hGLP-1R, 0.1% bovine casein, without or with 1.0% human serum albumin; set-up: expressed in transfected cells; conditions: for Emax: percent of maximal response to GLP-1(7-36)NH2; for EC50: cAMP
Summary of the method: (§1)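 Cells were stimulated with peptide for 30 min at 37° C, then lysed in buffer carrying cAMP-d2 and anti-cAMP Eu3+-cryptate for a competitive HTRF read after at least 60 min at room temperature. The 665/620 nm ratio was converted to nM cAMP against a standard curve.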

[2] = molecular target: T1, hGIPR (Homo sapiens, UniProt P48546); assay: Functional cAMP formation (HTRF) in HEK-293 clonal cells expressing hGIPR, 0.1% bovine casein, without or with 1.0% human serum albumin; conditions: for Emax: percent of maximal response to GIP(1-42)NH2; for EC50: cAMP, 0.1% bovine casein (no human serum albumin), geometric mean
T1 construct: expressed in transfected cells
T1 sequence (P48546 22-466): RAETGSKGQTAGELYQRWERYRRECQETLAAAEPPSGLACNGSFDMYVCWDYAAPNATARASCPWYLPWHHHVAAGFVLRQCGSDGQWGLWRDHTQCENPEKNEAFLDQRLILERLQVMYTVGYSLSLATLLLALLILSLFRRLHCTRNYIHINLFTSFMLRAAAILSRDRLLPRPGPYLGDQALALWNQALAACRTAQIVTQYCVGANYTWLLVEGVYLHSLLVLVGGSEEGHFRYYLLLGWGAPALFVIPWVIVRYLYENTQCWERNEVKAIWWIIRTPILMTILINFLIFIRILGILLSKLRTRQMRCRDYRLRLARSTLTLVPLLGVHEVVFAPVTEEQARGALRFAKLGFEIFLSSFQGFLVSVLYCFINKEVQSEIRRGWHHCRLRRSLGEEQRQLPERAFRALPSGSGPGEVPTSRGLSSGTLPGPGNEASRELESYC
Summary of the method: as §1

[3] = molecular target: T2, hGCGR (Homo sapiens, UniProt P47871); assay: Functional cAMP formation (HTRF) in HEK-293 clonal cells expressing hGCGR, 0.1% bovine casein, without or with 1.0% human serum albumin; conditions: cAMP, 37° C.
T2 construct: expressed in transfected cells
Summary of the method: as §1

[4] = HEK293, cAMP, 37° C., 0.1% bovine casein and 1.0% human serum albumin, read-out: hGLP-1R Emax, % ± SEM
[5] = 37° C., 0.1% bovine casein (no human serum albumin), geometric mean, read-out: hGLP-1R EC50, nM (SEM, n)
[6] = HEK293, cAMP, 37° C., 0.1% bovine casein and 1.0% human serum albumin, read-out: hGIPR Emax, % ± SEM
[7] = 37° C., read-out: hGIPR EC50, nM (SEM, n)
[8] = 0.1% bovine casein (no human serum albumin), geometric mean, read-out: hGCGR EC50, nM (SEM, n)
[9] = 0.1% bovine casein and 1.0% human serum albumin, geometric mean (SEM, n), read-out: hGCGR EC50, nM (SEM, n)
[10] = HEK293, cAMP, 37° C., 0.1% bovine casein, arithmetic mean, read-out: hGLP-1R Emax, % ± SEM
[11] = HEK293, cAMP, 37° C., 0.1% bovine casein, arithmetic mean, read-out: hGIPR Emax, % ± SEM

Sequence of hGLP-1R (P43220 24-463): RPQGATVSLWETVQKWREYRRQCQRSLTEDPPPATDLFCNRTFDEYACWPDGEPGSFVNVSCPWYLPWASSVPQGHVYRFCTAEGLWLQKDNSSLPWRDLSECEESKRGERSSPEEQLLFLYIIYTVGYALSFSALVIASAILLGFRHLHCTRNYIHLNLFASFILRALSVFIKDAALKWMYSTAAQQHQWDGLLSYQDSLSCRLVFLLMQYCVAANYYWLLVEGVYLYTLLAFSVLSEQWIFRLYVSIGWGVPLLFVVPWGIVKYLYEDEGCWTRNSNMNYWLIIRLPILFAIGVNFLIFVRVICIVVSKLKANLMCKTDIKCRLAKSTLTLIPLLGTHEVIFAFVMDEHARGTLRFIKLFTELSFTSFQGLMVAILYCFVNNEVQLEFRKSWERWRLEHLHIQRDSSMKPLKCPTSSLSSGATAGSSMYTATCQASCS
T2 sequence (P47871 26-477): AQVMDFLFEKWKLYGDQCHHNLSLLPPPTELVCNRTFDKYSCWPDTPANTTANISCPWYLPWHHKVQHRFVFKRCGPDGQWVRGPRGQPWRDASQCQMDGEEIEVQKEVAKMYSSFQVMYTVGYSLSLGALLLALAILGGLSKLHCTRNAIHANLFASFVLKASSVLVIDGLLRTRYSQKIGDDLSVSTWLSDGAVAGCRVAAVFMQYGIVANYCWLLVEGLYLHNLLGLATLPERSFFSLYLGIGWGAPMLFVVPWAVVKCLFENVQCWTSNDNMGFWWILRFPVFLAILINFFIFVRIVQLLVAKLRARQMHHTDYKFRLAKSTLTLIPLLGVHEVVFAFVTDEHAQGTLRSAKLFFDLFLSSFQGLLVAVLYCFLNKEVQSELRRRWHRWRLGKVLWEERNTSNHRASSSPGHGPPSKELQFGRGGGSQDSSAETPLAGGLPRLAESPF

Row | SMILES | Emax [1, 4] | EC50 [1, 5] | Emax [2, 6] | EC50 [2, 7] | EC50 [3, 8] | EC50 [3, 9] | Emax [1, 10] | Emax [2, 11] | EC50 ([1]; 37° C., 0.1% bovine casein and 1.0% human serum albumin, geometric mean (SEM, n), read-out: hGLP-1R EC50, nM (SEM, n)) | Emax ([1]; HEK293, read-out: hGLP-1R Emax, % ± SEM, cAMP, 37° C., 0.1% bovine casein, arithmetic mean) | EC50 ([1]; hGLP-1R EC50, nM (SEM, n), 37° C., 0.1% bovine casein (no human serum albumin), geometric mean) | Emax ([2]; HEK293, read-out: hGIPR Emax, % ± SEM, cAMP, 37° C., 0.1% bovine casein and 1.0% human serum albumin) | EC50 ([2]; hGIPR EC50, nM (SEM, n), 37° C.) | EC50 ([3]; hGCGR EC50, nM (SEM, n), 0.1% bovine casein (no human serum albumin), geometric mean) | EC50 ([3]; hGCGR EC50, nM (SEM, n), 0.1% bovine casein and 1.0% human serum albumin, geometric mean (SEM, n))
1 | CCCCCCCCCCCC(=O)N[C@@H](CCC(=O)NCCOCCOCC(=O)NCCOCCOCC(=O)NCCCC[C@H](NC(=O)[C@H](CO)NC(=O)[C@@H]1CCCN1C(=O)[C@@H]1CCCN1C(=O)[C@@H]1CCCN1C(=O)[C@H](C)NC(=O)CNC(=O)[C@H](CO)NC(=O)[C@H](CO)NC(=O)[C@@H]1CCCN1C(=O)CNC(=O)CNC(=O)[C@H](CCC(=O)O)NC(=O)[C@@H](NC(=O)[C@H](CC(C)C)NC(=O)[C@](C)(Cc1ccc(O)cc1)NC(=O)[C@@H](CCC(=O)O)NC(=O)[C@@H](NC(=O)[C@](C)(Cc1ccccc1)NC(=O)[C@H](CCC(=O)O)NC(=O)C(C)(C)NC(=O)[C@H](CCC(N)=O)NC(=O)[C@H](C)NC(=O)[C@H](CCCCNC(=O)COCCOCCNC(=O)COCCOCCNC(=O)CC[C@H](NC(=O)CCCCCCCCCCC)C(=O)O)NC(=O)[C@H](CCCN)NC(=O)[C@H](CC(=O)O)NC(=O)[C@H](CC(C)C)NC(=O)[C@](C)(CC(C)C)NC(=O)[C@@H](NC(=O)C(C)(C)NC(=O)[C@H](Cc1ccncc1)NC(=O)[C@H](CC(=O)O)NC(=O)[C@H](CO)NC(=O)[C@@H](NC(=O)[C@](C)(Cc1ccccc1F)NC(=O)[C@@H](NC(=O)CNC(=O)[C@H](CCC(=O)O)NC(=O)C(C)(C)NC(=O)[C@@H](N)Cc1ccc(O)cc1)[C@@H](C)O)[C@@H](C)O)[C@@H](C)CC)[C@@H](C)CC)[C@@H](C)CC)C(N)=O)C(=O)O [Example 431] (H-Y[Aib]EGT[αMePhe(2-F)]TSD[4Pal][Aib]I[αMeL]LD[Orn]K([AEEA-AEEA-γGlu-Lauroyl])AQ[Aib]E[αMeF]I[dE][αMeY]LIEGGPSSGAPPPSK([AEEA-AEEA-γGlu-Lauroyl])-NH2) | 91.6% | 0.134 nM | 98% | 0.0097 nM | > 9950 nM | > 9950 nM |  |  |  |  |  |  |  |  | 
2 | CCCCCCCCCCCC(=O)N[C@@H](CCC(=O)NCCOCCOCC(=O)NCCOCCOCC(=O)NCCOCCOCC(=O)NCCCC[C@H](NC(=O)[C@H](CCCN)NC(=O)[C@H](CC(=O)O)NC(=O)[C@H](CC(C)C)NC(=O)[C@](C)(CC(C)C)NC(=O)[C@@H](NC(=O)C(C)(C)NC(=O)[C@H](Cc1ccncc1)NC(=O)[C@H](CC(=O)O)NC(=O)[C@H](CO)NC(=O)[C@@H](NC(=O)[C@](C)(Cc1ccccc1F)NC(=O)[C@@H](NC(=O)CNC(=O)[C@H](CCC(=O)O)NC(=O)C(C)(C)NC(=O)[C@@H](N)Cc1ccc(O)cc1)[C@@H](C)O)[C@@H](C)O)[C@@H](C)CC)C(=O)N[C@@H](C)C(=O)N[C@@H](CCC(N)=O)C(=O)NC(C)(C)C(=O)N[C@@H](CCCCNC(=O)COCCOCCNC(=O)COCCOCCNC(=O)COCCOCCNC(=O)CC[C@H](NC(=O)CCCCCCCCCCC)C(=O)O)C(=O)N[C@@](C)(Cc1ccccc1)C(=O)N[C@H](C(=O)N[C@H](CCC(=O)O)C(=O)N[C@@](C)(Cc1ccc(O)cc1)C(=O)N[C@@H](CC(C)C)C(=O)N[C@H](C(=O)N[C@@H](CCC(=O)O)C(=O)NCC(=O)NCC(=O)N1CCC[C@H]1C(=O)N[C@@H](CO)C(=O)N[C@@H](CO)C(=O)NCC(=O)N[C@@H](C)C(=O)N1CCC[C@H]1C(=O)N1CCC[C@H]1C(=O)N1CCC[C@H]1C(=O)N[C@@H](CO)C(N)=O)[C@@H](C)CC)[C@@H](C)CC)C(=O)O [Example 437] (H-Y[Aib]EGT[αMePhe(2-F)]TSD[4Pal][Aib]I[αMeL]LD[Orn]K([AEEA-AEEA-AEEA-γGlu-Lauroyl])AQ[Aib]K([AEEA-AEEA-AEEA-γGlu-Lauroyl])[αMeF]I[dE][αMeY]LIEGGPSSGAPPPS-NH2) | 91.2% | 0.249 nM | 96.5% | 0.0146 nM | > 9950 nM | > 9950 nM | 89.2% | 94.8% |  |  |  |  |  |  | 
3 | CCCCCCCCCCCC(=O)N[C@@H](CCC(=O)NCCOCCOCC(=O)NCCOCCOCC(=O)NCCOCCOCC(=O)NCCCC[C@H](NC(=O)[C@H](CCCN)NC(=O)[C@H](CC(=O)O)NC(=O)[C@H](CC(C)C)NC(=O)[C@](C)(CC(C)C)NC(=O)[C@@H](NC(=O)C(C)(C)NC(=O)[C@H](Cc1ccncc1)NC(=O)[C@H](CC(=O)O)NC(=O)[C@H](CO)NC(=O)[C@@H](NC(=O)[C@](C)(Cc1ccccc1F)NC(=O)[C@@H](NC(=O)CNC(=O)[C@H](CCC(=O)O)NC(=O)C(C)(C)NC(=O)[C@@H](N)Cc1ccc(O)cc1)[C@@H](C)O)[C@@H](C)O)[C@@H](C)CC)C(=O)N[C@@H](C)C(=O)N[C@@H](CCC(N)=O)C(=O)NC(C)(C)C(=O)N[C@@H](CCC(=O)O)C(=O)N[C@@](C)(Cc1ccccc1)C(=O)N[C@H](C(=O)N[C@H](CCC(=O)O)C(=O)N[C@@](C)(Cc1ccc(O)cc1)C(=O)N[C@@H](CC(C)C)C(=O)N[C@H](C(=O)N[C@@H](CCCCNC(=O)COCCOCCNC(=O)COCCOCCNC(=O)COCCOCCNC(=O)CC[C@H](NC(=O)CCCCCCCCCCC)C(=O)O)C(=O)NCC(=O)NCC(=O)N1CCC[C@H]1C(=O)N[C@@H](CO)C(=O)N[C@@H](CO)C(=O)NCC(=O)N[C@@H](C)C(=O)N1CCC[C@H]1C(=O)N1CCC[C@H]1C(=O)N1CCC[C@H]1C(=O)N[C@@H](CO)C(N)=O)[C@@H](C)CC)[C@@H](C)CC)C(=O)O [Example 438] (H-Y[Aib]EGT[αMePhe(2-F)]TSD[4Pal][Aib]I[αMeL]LD[Orn]K([AEEA-AEEA-AEEA-γGlu-Lauroyl])AQ[Aib]E[αMeF]I[dE][αMeY]LIK([AEEA-AEEA-AEEA-γGlu-Lauroyl])GGPSSGAPPPS-NH2) | 88.7% | 0.471 nM | 90.8% | 0.0157 nM | > 9950 nM | > 9950 nM | 88.5% | 98.9% | 28 nM |  |  |  |  |  | 
4 | CC[C@H](C)[C@H](NC(=O)[C@H](CC(C)C)NC(=O)[C@](C)(Cc1ccc(O)cc1)NC(=O)[C@H](CCCCNC(=O)COCCOCCNC(=O)COCCOCCNC(=O)CC[C@H](NC(=O)CCCCCCCCCCOc1ccc(C(=O)O)cc1)C(=O)O)NC(=O)[C@@H](NC(=O)[C@H](Cc1ccccc1)NC(=O)[C@H](CCCN)NC(=O)C(C)(C)NC(=O)[C@H](CCC(N)=O)NC(=O)[C@H](C)NC(=O)[C@H](CCC(N)=O)NC(=O)[C@H](CCCN)NC(=O)[C@H](CC(=O)O)NC(=O)[C@H](CC(C)C)NC(=O)[C@](C)(CC(C)C)NC(=O)[C@@H](NC(=O)C(C)(C)NC(=O)[C@H](Cc1ccncc1)NC(=O)[C@H](CC(=O)O)NC(=O)[C@H](CO)NC(=O)[C@@H](NC(=O)[C@](C)(Cc1ccccc1F)NC(=O)[C@@H](NC(=O)CNC(=O)[C@H](CCC(=O)O)NC(=O)C(C)(C)NC(=O)[C@@H](N)Cc1ccc(O)cc1)[C@@H](C)O)[C@@H](C)O)[C@@H](C)CC)[C@@H](C)CC)C(=O)N[C@@H](CCCCNC(=O)COCCOCCNC(=O)COCCOCCNC(=O)CC[C@H](NC(=O)CCCCCCCCCCOc1ccc(C(=O)O)cc1)C(=O)O)C(=O)NCC(=O)NCC(=O)N1CCC[C@H]1C(=O)N[C@@H](CO)C(=O)N[C@@H](CO)C(=O)NCC(=O)N[C@@H](C)C(=O)N1CCC[C@H]1C(=O)N1CCC[C@H]1C(=O)N1CCC[C@H]1C(=O)N[C@@H](CO)C(N)=O [Example 442] |  |  |  |  |  |  |  |  |  | 113% | 0.285 nM | 92.1% | 0.0129 nM | > 9950 nM | > 9950 nM
